# Assays:
# [1] = Terminal half life in rat at 100 mg, iv; type: ADME, organism-based; conditions: in vivo, read-out: beta t1/2 (converted)
# Homo sapiens [2] = organism: Homo sapiens; assay: Induction of tau K19 (unknown origin) disaggregation assessed as decrease in paired helical filament formation measured disassembly-inducing half maxima after 10 days by thioflavin S fluorescence assay in presence of heparin
# [3] = Tmax in amyotrophic lateral sclerosis patient; conditions: human, in vivo
# [4] = Inhibition of K18 P301L mutant (unknown origin) fibril formation after 1 hr by thioflavin T fluorescence assay; set-up: species or system Homo sapiens
# [5] = target: T1, Microtubule-associated protein tau (Homo sapiens, UniProt P10636); assay: Inhibition of human recombinant brain tau protein (412 amino acid residues) filament assembly expressed in Escherichia coli BL21(DE3) by electron microscopic analysis in presence of heparin
# T1 sequence (P10636 whole entry): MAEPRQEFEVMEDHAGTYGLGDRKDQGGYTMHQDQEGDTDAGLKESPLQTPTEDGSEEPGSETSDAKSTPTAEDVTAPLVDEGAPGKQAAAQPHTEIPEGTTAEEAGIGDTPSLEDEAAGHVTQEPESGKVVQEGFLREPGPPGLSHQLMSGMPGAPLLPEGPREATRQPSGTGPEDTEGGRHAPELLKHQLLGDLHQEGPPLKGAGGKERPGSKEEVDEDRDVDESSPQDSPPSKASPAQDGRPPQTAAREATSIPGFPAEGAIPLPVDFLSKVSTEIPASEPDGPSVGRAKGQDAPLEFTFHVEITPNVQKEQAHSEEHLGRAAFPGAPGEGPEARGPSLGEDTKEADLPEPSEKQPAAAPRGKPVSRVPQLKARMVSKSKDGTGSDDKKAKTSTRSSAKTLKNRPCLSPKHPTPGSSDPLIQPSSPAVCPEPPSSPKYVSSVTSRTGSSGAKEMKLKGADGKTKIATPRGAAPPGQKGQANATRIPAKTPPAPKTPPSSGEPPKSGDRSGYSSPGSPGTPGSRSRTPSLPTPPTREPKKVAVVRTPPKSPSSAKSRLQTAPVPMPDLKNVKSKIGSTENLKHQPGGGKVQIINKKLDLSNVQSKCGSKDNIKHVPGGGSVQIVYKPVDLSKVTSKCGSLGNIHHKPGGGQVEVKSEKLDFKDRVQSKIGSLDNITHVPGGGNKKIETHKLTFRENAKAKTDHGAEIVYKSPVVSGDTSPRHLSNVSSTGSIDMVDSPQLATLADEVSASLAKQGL
# Homo sapiens [6] = organism: Homo sapiens; assay: Induction of tau K19 (unknown origin) disaggregation assessed as decrease in paired helical filament formation measured disassembly-inducing half maxima by thioflavin S fluorescence assay
# [7] = Inhibition of tau K19 protein (unknown origin) aggregation by thioflavin S fluorescence assay; set-up: species or system Homo sapiens
# N2a [8] = assay: Cytotoxicity against mouse N2A cells at 10 uM after 24 hrs by LDH assay relative to control; type: cell-based
# [9] = Inhibition of tau K18 aggregation in mouse N2A cells; type: cell-based
# [10] = target: Amyloid-beta precursor protein (Homo sapiens, UniProt P05067); assay: Inhibition of amyloid beta (1 to 40) (unknown origin) fibril formation after 18 hrs by DELFIA
# Amyloid-beta precursor protein, sequence (P05067 whole entry): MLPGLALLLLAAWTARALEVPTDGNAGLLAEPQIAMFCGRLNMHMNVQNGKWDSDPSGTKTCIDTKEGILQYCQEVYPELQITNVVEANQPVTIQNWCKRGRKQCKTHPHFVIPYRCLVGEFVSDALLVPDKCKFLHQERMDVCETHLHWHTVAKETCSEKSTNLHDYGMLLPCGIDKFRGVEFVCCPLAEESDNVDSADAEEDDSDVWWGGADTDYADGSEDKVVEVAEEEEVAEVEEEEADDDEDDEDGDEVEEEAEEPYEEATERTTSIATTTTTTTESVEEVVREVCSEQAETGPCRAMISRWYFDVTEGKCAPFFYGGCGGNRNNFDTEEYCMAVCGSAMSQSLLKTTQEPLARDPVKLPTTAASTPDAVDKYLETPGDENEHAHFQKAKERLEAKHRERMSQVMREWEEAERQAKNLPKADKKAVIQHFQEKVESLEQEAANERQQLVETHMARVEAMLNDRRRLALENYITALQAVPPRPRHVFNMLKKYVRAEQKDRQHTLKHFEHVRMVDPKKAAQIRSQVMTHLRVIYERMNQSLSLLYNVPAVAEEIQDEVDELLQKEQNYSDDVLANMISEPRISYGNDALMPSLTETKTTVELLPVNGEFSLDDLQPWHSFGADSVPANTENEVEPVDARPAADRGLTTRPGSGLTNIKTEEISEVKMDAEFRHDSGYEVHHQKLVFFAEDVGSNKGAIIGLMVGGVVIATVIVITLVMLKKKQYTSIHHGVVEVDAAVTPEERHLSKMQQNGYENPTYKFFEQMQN
# N2a [11] = assay: Inhibition of tau K18 deltaK280 mutant aggregation in mouse N2A cells at 10 uM measured over 5 days by thioflavin S fluorescence assay relative to control; type: cell-based
# Homo sapiens [12] = organism: Homo sapiens; assay: Selectivity ratio of IC50 for full length human tau40 aggregation to IC50 for tau K19 aggregation (unknown origin)
# [13] = Inhibition of full length human tau40 aggregation
# [14] = Inhibition of tau K19 aggregation (unknown origin); set-up: species or system Homo sapiens
# [15] = Inhibition of tau K19 (unknown origin) aggregation assessed as inhibition of paired helical filament formation after 10 days by thioflavin S fluorescence assay in presence of heparin; set-up: species or system Homo sapiens
# [16] = target: T1, Microtubule-associated protein tau; assay: Inhibition of tau protein aggregation (unknown origin)
# [17] = target: T1, Microtubule-associated protein tau; assay: Inhibition of tau protein aggregation (unknown origin) at 5:1 compound to protein concentration by Western blot analysis
# [18] = target: T1, Microtubule-associated protein tau; assay: Induction of tau protein (unknown origin) disaggregation assessed as disassembly-inducing half maxima
# [19] = Inhibition of […] human tau K18 aggregation
# [20] = Oral bioavailability in diabetic neuropathy patient at 150 mg/day; type: ADME, organism-based; conditions: human, in vivo
# [21] = Binding affinity to tau K19 (unknown origin) assessed as dissociation constant by STD-NMR analysis; set-up: species or system Homo sapiens
# Homo sapiens [22] = organism: Homo sapiens; assay: Induction of tau K19 (unknown origin) disaggregation assessed as disassembly-inducing half maxima
smiles,measurement,setting,value
CN(C)c1ccc2nc3ccc(N(C)C)cc3[s+]c2c1.[Cl-] [METHYLENE BLUE ANHYDROUS],half-life,[1],5 h
COc1cccc2c1C(=O)c1c(O)c3c(c(O)c1C2=O)C[C@@](O)(C(=O)CO)C[C@@H]3O[C@H]1C[C@H](N)[C@H](O)[C@H](C)O1,Activity,Homo sapiens [2],2.2 µM
Nc1nc2ccc(OC(F)(F)F)cc2s1 [RILUZOLE],Tmax,[3],2 h
CCOC(=O)c1nn(-c2ccc(OC)cc2)c(=O)c2c(N)scc12,IC50,[4],5100 nM
Oc1cc(O)c2c(c1)O[C@H](c1ccc(O)c(O)c1)[C@H](O)C2 [(-)-EPICATECHIN],IC50,[5],≥ 200000 nM
O=C1/C(=C/c2ccc(-c3cccc(Cl)c3)o2)SC(=S)N1Cc1nc2ccccc2[nH]1,Activity,Homo sapiens [6],0.94 µM
same,IC50,[7],670 nM
same,Activity,N2a [8],2%
O=C(O)COc1ccc(Nc2c([N+](=O)[O-])cc([N+](=O)[O-])c3cccnc23)cc1,IC50,[9],< 15000 nM
COc1ccccc1OCCNCC(O)COc1cccc2[nH]c3ccccc3c12 (configuration not stated) [CARVEDILOL],IC50,[10],30000 nM
Cc1nc(Nc2ccccc2C(=O)O)nc(Nc2ccccc2C(=O)O)c1[N+](=O)[O-],inhibition,N2a [11],70%
same,IC50,[9],< 10000 nM
O=C(O[C@@H]1Cc2c(O)cc(O)cc2O[C@@H]1c1cc(O)c(O)c(O)c1)c1cc(O)c(O)c(O)c1 [EPIGALOCATECHIN GALLATE],Ratio IC50,Homo sapiens [12],> 50
same,IC50,[13],> 200000 nM
same,IC50,[14],3900 nM
same,IC50,[5],1800 nM
O=C(O)CCN1C(=O)/C(=C/c2ccc(-c3cccc(Cl)c3)o2)SC1=S,Activity,Homo sapiens [6],0.3 µM
same,IC50,[7],470 nM
O=C1c2ccc(O)c(O)c2C(=O)c2c(O)ccc(O)c21 [QUINALIZARIN],Activity,Homo sapiens [2],2.2 µM
same,IC50,[15],1100 nM
C1=C2\Sc3ccccc3N2CCCCC[n+]2c(sc3ccccc32)/C=C/C=C2\Sc3ccccc3N2CCCCC[n+]2c(sc3ccccc32)/C=C/1,IC50,[16],80 nM
CN(C)c1ccc2nc3ccc(N)cc3[s+]c2c1,IC50,[17],69 nM
same,IC50,[5],2600 nM
Cc1ccc(C(=O)N/N=C/c2ccc(O)c(O)c2O)cc1,Activity,[18],1.1 µM
same,IC50,[16],970 nM
CCC(/C=C1\Sc2ccc(OC)cc2N1CCO)=C\c1sc2ccc(OC)cc2[n+]1CCO,IC50,[19],300 nM
same,IC50,[16],380 nM
Cc1cc2nc3ccc(N(C)C)cc3[s+]c2cc1N [TOLONIUM CHLORIDE],IC50,[17],69 nM
COc1cccc2c1C(=O)c1c(O)c3c(c(O)c1C2=O)C[C@@](O)(C(C)=O)C[C@@H]3O[C@H]1C[C@H](N)[C@H](O)[C@H](C)O1 [DAUNORUBICIN],Activity,Homo sapiens [2],2.2 µM
same,IC50,[15],1100 nM
CCOC(=O)c1nn(-c2ccccc2)c(=O)c2c(N)scc12,IC50,[4],6300 nM
O=C(O)CCN1C(=O)/C(=C/c2ccc(-c3cccc(Cl)c3)s2)SC1=S,Activity,Homo sapiens [6],0.77 µM
same,IC50,[7],970 nM
O=C(c1ccccc1)c1ccc(O)c(O)c1O,Activity,Homo sapiens [2],2.2 µM
same,IC50,[15],1100 nM
Nc1ccc2nc3ccc(N)cc3[s+]c2c1,IC50,[17],69 nM
CC(/C=C1\SC(=S)N(CC(=O)O)C1=O)=C\c1ccccc1,bioavailability,[20],100%
O=C(NNc1nc(-c2ccc([N+](=O)[O-])cc2)cs1)c1ccc2[nH]cnc2c1,Kd,[21],62000 nM
same,Activity,Homo sapiens [22],0.7 µM
same,IC50,[14],1600 nM
Cc1cc(O)c2c(c1)C(=O)c1cc(O)cc(O)c1C2=O [EMODIN],Activity,Homo sapiens [2],2.2 µM
same,IC50,[15],1100 nM

# — ChEMBL document CHEMBL2385058, “Progress and developments in tau aggregation inhibitors for Alzheimer disease” (J Med Chem, 2013)
